Values after ≈ are worked out from the molar mass of the structure shown. Where two headings read alike, the source gives them in different places.
What was measured:
Assay in all cases: Antibacterial activity MIC assay (two-fold dilution agar plating)
Assay type in all cases: cell-based
[1] = tested on: Proteus mirabilis; details: for Minimal Inhibitory Concentration (MIC): Proteus mirabilis ATCC 49565
Description: (§1) Antibacterial Activity-Evaluating Method (MIC Assay)
(§2) In this study, the compounds of the present invention were tested for their antibacterial activities by using two-fold dilution agar plating method and Denley Multipoint Inoculator A400 according to the guidelines of the CLSI/NCCLS standard. The tested strains were amplified by hydrolyzed casein peptone (Mueller-Hinton Agar) broth and Brain and Heart Infusion. The strains used in this study were bacterial strains that were purchased from ATCC or clinically isolated in Chinese hospitals. Aztreonam, polymyxin or levofloxacin was used as positive control. The drugs were diluted with hydrolyzed casein peptone broth to the desired concentrations including 128.0, 64.0, 32.0, 16.0, 8.0, 4.0, 2.0, 1.0, 0.5, 0.25, 0.125, 0.06 and 0.03 μg/mL, and then placed respectively into each well and mixed thoroughly. After inoculation, the tested strains were incubated for 18 hours at a constant temperature of 35° C., and their growth levels were observed. The drug concentration with no microbial growth in the well was recorded as the lowest Minimal Inhibitory Concentration (MIC).

[2] = tested on: Pseudomonas aeruginosa; details: for MIC: read-out: Minimal Inhibitory Concentration (MIC)
Description: as §1, §2

[3] = tested on: Shigella flexneri; details: Shigella flexneri ATCC 12022
Description: as §1, §2

[4] = tested on: Serratia marcescens; details: Serratia marcescens ATCC 21074
Description: as §1, §2

[5] = tested on: Escherichia coli; details: for MIC: Escherichia coli, read-out: Minimal Inhibitory Concentration (MIC)
Description: as §1, §2

[6] = tested on: Stenotrophomonas maltophilia; details: Stenotrophomonas maltophilia ATCC 13636
Description: as §1, §2

[7] = tested on: Providencia rettgeri; details: for Minimal Inhibitory Concentration (MIC): Providencia rettgeri ATCC 31052
Description: as §1, §2

[8] = tested on: Acinetobacter baumannii; details: for MIC: Acinetobacter baumannii, read-out: Minimal Inhibitory Concentration (MIC)
Description: as §1, §2

[9] = tested on: Proteus vulgaris; details: for Minimal Inhibitory Concentration (MIC): Proteus vulgaris ATCC 29905
Description: as §1, §2

[10] = tested on: Citrobacter freundii; details: Citrobacter freundii ATCC 43864
Description: as §1, §2

[11] = tested on: Enterobacter cloacae; details: for MIC: read-out: Minimal Inhibitory Concentration (MIC)
Description: as §1, §2

[12] = tested on: Salmonella typhi; details: for Minimal Inhibitory Concentration (MIC): Salmonella typhi H901
Description: as §1, §2

[13] = tested on: Enterobacter aerogenes; details: Enterobacter aerogenes ATCC 13048
Description: as §1, §2

[14] = tested on: Klebsiella Pneumoniae; details: for MIC: Klebsiella pneumoniae, read-out: Minimal Inhibitory Concentration (MIC)
Description: as §1, §2

[15] = Pseudomonas aeruginosa ATCC 27853
[16] = Escherichia coli 08-85, mcr-1(+)
[17] = Escherichia coli 13-43, mcr-1(+)
[18] = Escherichia coli 13-66, mcr-1(+)
[19] = Escherichia coli 16-1, ESBLs(+)
[20] = Escherichia coli 16-7, ESBLs(−)
[21] = Escherichia coli 17-R28, CRE, NDM-1(+)
[22] = Escherichia coli ATCC 25922, ESBLs(−)
[23] = Escherichia coli ATCC 35218, ESBLs(+)
[24] = Escherichia coli CDC1001728, NDM-1(+)
[25] = Acinetobacter baumannii ATCC 19606
[26] = Enterobacter cloacae ATCC 43560
[27] = Enterobacter cloacae CDC1000654
[28] = Klebsiella Pneumoniae 09-20, mcr-1(+)
[29] = Klebsiella Pneumoniae 16-2, ESBLs(−)
[30] = Klebsiella Pneumoniae 16-14, ESBLs(+)
[31] = Klebsiella Pneumoniae ATCC 700603, ESBLs(+)
[32] = Klebsiella Pneumoniae ATCC BAA-2146, NDM-1(+)

Structure (SMILES): CC1(C)[C@H](NC(=O)/C(=N\OC2(C(=O)O)CC2)c2nsc(N)n2)C(=O)N1OS(=O)(=O)O [Compound A-6]
- Minimal Inhibitory Concentration (MIC) [1]: 1 µg/mL
- Minimal Inhibitory Concentration (MIC) ([2]; Pseudomonas aeruginosa 16-11): 16 µg/mL
- Minimal Inhibitory Concentration (MIC) [2, 15]: 16 µg/mL
- Minimal Inhibitory Concentration (MIC) ([2]; Pseudomonas aeruginosa PAO1): 8 µg/mL
- Minimal Inhibitory Concentration (MIC) [3]: 0.06 µg/mL
- Minimal Inhibitory Concentration (MIC) [4]: 1 µg/mL
- Minimal Inhibitory Concentration (MIC) [5, 16]: 4 µg/mL
- Minimal Inhibitory Concentration (MIC) [5, 17]: 4 µg/mL
- Minimal Inhibitory Concentration (MIC) [5, 18]: 4 µg/mL
- Minimal Inhibitory Concentration (MIC) [5, 19]: 0.5 µg/mL
- Minimal Inhibitory Concentration (MIC) [5, 20]: 0.5 µg/mL
- Minimal Inhibitory Concentration (MIC) [5, 21]: >64 µg/mL
- Minimal Inhibitory Concentration (MIC) [5, 22]: 0.5 µg/mL
- Minimal Inhibitory Concentration (MIC) [5, 23]: 0.25 µg/mL
- Minimal Inhibitory Concentration (MIC) [5, 24]: 4 µg/mL
- Minimal Inhibitory Concentration (MIC) [6]: 32 µg/mL
- Minimal Inhibitory Concentration (MIC) [7]: ≤0.03 µg/mL
- Minimal Inhibitory Concentration (MIC) ([8]; Acinetobacter baumannii 16-16): >64 µg/mL
- Minimal Inhibitory Concentration (MIC) ([8]; Acinetobacter baumannii 16-33): 16 µg/mL
- Minimal Inhibitory Concentration (MIC) [8, 25]: 16 µg/mL
- Minimal Inhibitory Concentration (MIC) [9]: ≤0.03 µg/mL
- Minimal Inhibitory Concentration (MIC) [10]: 0.25 µg/mL
- Minimal Inhibitory Concentration (MIC) [11, 26]: 0.5 µg/mL
- Minimal Inhibitory Concentration (MIC) [11, 27]: 64 µg/mL
- Minimal Inhibitory Concentration (MIC) [12]: 0.5 µg/mL
- Minimal Inhibitory Concentration (MIC) [13]: 1 µg/mL
- Minimal Inhibitory Concentration (MIC) [14, 28]: 2 µg/mL
- Minimal Inhibitory Concentration (MIC) [14, 29]: 0.5 µg/mL
- Minimal Inhibitory Concentration (MIC) [14, 30]: 4 µg/mL
- Minimal Inhibitory Concentration (MIC) [14, 31]: 64 µg/mL
- Minimal Inhibitory Concentration (MIC) [14, 32]: 32 µg/mL

Structure (SMILES): CC1(C)[C@H](NC(=O)/C(=N\OC2(C(=O)O)CCCCC2)c2csc(N)n2)C(=O)N1OS(=O)(=O)O [Compound A-7]
- MIC ([1]; Proteus mirabilis, ATCC49565, Proteus mirabilis ATCC 49565, read-out: Minimal Inhibitory Concentration (MIC)): 0.12 µg/mL (≈ 0.237 µM)
- MIC ([2]; ATCC27853, Pseudomonas aeruginosa ATCC 27853): 32 µg/mL (≈ 63.3 µM)
- MIC ([2]; Pseudomonas aeruginosa 16-11): > 64 µg/mL
- MIC ([2]; Pseudomonas aeruginosa PAO1): 32 µg/mL (≈ 63.3 µM)
- MIC ([3]; ATCC12022, read-out: Minimal Inhibitory Concentration (MIC)): 2 µg/mL (≈ 3.96 µM)
- MIC ([4]; ATCC21074, read-out: Minimal Inhibitory Concentration (MIC)): 2 µg/mL (≈ 3.96 µM)
- MIC ([5]; ATCC25922, Escherichia coli ATCC 25922, ESBLs(−)): 4 µg/mL (≈ 7.91 µM)
- MIC ([5]; ATCC35218, Escherichia coli ATCC 35218, ESBLs(+)): 1 µg/mL (≈ 1.98 µM)
- MIC [5, 16]: 2 µg/mL (≈ 3.96 µM)
- MIC [5, 17]: 2 µg/mL (≈ 3.96 µM)
- MIC [5, 18]: 2 µg/mL (≈ 3.96 µM)
- MIC [5, 19]: 1 µg/mL (≈ 1.98 µM)
- MIC [5, 20]: 2 µg/mL (≈ 3.96 µM)
- MIC [5, 21]: 64 µg/mL (≈ 127 µM)
- MIC [5, 24]: 2 µg/mL (≈ 3.96 µM)
- MIC ([6]; ATCC13636, read-out: Minimal Inhibitory Concentration (MIC)): 16 µg/mL (≈ 31.6 µM)
- MIC ([7]; Providencia rettgeri, ATCC31052, Providencia rettgeri ATCC 31052, read-out: Minimal Inhibitory Concentration (MIC)): 0.25 µg/mL (≈ 0.495 µM)
- MIC ([8]; ATCC19606, Acinetobacter baumannii ATCC 19606): 32 µg/mL (≈ 63.3 µM)
- MIC ([8]; Acinetobacter baumannii 16-16): > 64 µg/mL
- MIC ([8]; Acinetobacter baumannii 16-33): 32 µg/mL (≈ 63.3 µM)
- MIC ([9]; Proteus vulgaris, ATCC29905, Proteus vulgaris ATCC 29905, read-out: Minimal Inhibitory Concentration (MIC)): 0.25 µg/mL (≈ 0.495 µM)
- MIC ([10]; ATCC43864, read-out: Minimal Inhibitory Concentration (MIC)): 2 µg/mL (≈ 3.96 µM)
- MIC ([11]; ATCC43560, Enterobacter cloacae ATCC 43560): 1 µg/mL (≈ 1.98 µM)
- MIC [11, 27]: 16 µg/mL (≈ 31.6 µM)
- MIC ([12]; Salmonella enterica, TYPHI, read-out: Minimal Inhibitory Concentration (MIC)): 4 µg/mL (≈ 7.91 µM)
- MIC ([13]; Klebsiella aerogenes, ATCC13048, read-out: Minimal Inhibitory Concentration (MIC)): 4 µg/mL (≈ 7.91 µM)
- MIC ([14]; ATCC700603, Klebsiella Pneumoniae ATCC 700603, ESBLs(+)): 8 µg/mL (≈ 15.8 µM)
- MIC ([14]; ATCCBAA2146, Klebsiella Pneumoniae ATCC BAA-2146, NDM-1(+)): 8 µg/mL (≈ 15.8 µM)
- MIC [14, 28]: 2 µg/mL (≈ 3.96 µM)
- MIC [14, 29]: 2 µg/mL (≈ 3.96 µM)
- MIC [14, 30]: 2 µg/mL (≈ 3.96 µM)
- MIC ([14]; Klebsiella Pneumoniae 17-R27, CRE): 4 µg/mL (≈ 7.91 µM)

Structure (SMILES): C=CCON=C(C(=O)NC1C(=O)N(OS(=O)(=O)O)C1(C)C)c1csc(N)n1 (stereo not drawn) [Compound B-1]
- Minimal Inhibitory Concentration (MIC) [1]: 0.125 µg/mL
- Minimal Inhibitory Concentration (MIC) ([2]; Pseudomonas aeruginosa 16-11): >64 µg/mL
- Minimal Inhibitory Concentration (MIC) [2, 15]: 64 µg/mL
- Minimal Inhibitory Concentration (MIC) ([2]; Pseudomonas aeruginosa PAO1): 16 µg/mL
- Minimal Inhibitory Concentration (MIC) [3]: 0.5 µg/mL
- Minimal Inhibitory Concentration (MIC) [4]: 1 µg/mL
- Minimal Inhibitory Concentration (MIC) [5, 16]: 0.5 µg/mL
- Minimal Inhibitory Concentration (MIC) [5, 17]: 1 µg/mL
- Minimal Inhibitory Concentration (MIC) [5, 18]: 1 µg/mL
- Minimal Inhibitory Concentration (MIC) [5, 19]: 0.25 µg/mL
- Minimal Inhibitory Concentration (MIC) [5, 20]: 0.25 µg/mL
- Minimal Inhibitory Concentration (MIC) [5, 22]: 0.5 µg/mL
- Minimal Inhibitory Concentration (MIC) [5, 23]: 0.5 µg/mL
- Minimal Inhibitory Concentration (MIC) [5, 24]: 4 µg/mL
- Minimal Inhibitory Concentration (MIC) [6]: 16 µg/mL
- Minimal Inhibitory Concentration (MIC) [7]: ≤0.03 µg/mL
- Minimal Inhibitory Concentration (MIC) ([8]; Acinetobacter baumannii 16-16): 32 µg/mL
- Minimal Inhibitory Concentration (MIC) ([8]; Acinetobacter baumannii 16-33): 8 µg/mL
- Minimal Inhibitory Concentration (MIC) [8, 25]: 8 µg/mL
- Minimal Inhibitory Concentration (MIC) [9]: ≤0.03 µg/mL
- Minimal Inhibitory Concentration (MIC) [10]: 0.5 µg/mL
- Minimal Inhibitory Concentration (MIC) [11, 26]: 0.25 µg/mL
- Minimal Inhibitory Concentration (MIC) [11, 27]: 8 µg/mL
- Minimal Inhibitory Concentration (MIC) [12]: 0.25 µg/mL
- Minimal Inhibitory Concentration (MIC) [13]: 1 µg/mL
- Minimal Inhibitory Concentration (MIC) [14, 28]: 1 µg/mL
- Minimal Inhibitory Concentration (MIC) [14, 29]: 0.5 µg/mL
- Minimal Inhibitory Concentration (MIC) [14, 30]: 0.5 µg/mL
- Minimal Inhibitory Concentration (MIC) [14, 31]: 16 µg/mL
- Minimal Inhibitory Concentration (MIC) [14, 32]: 4 µg/mL

Source: patent publication US12497393B2, “β-lactam compound, use thereof and preparation method therefor” (priority 2020, dated 2025)
